ChEMBL document CHEMBL3259546, “Chrotacumines G-J, chromone alkaloids from Dysoxylum acutangulum with osteoclast differentiation inhibitory activity” (Bioorg Med Chem Lett, 2014)
pIC50: −log10 of the molar value.

How the values were obtained:
[1] = system: Osteoclast; assay: Inhibition of RANKL-induced osteoclast differentiation in ICR mouse bone marrow after 48 hrs by TRAP assay; format: functional, cell-based
[2] = Cytotoxicity against ICR mouse osteoclasts by MTT assay; format: cell-based; details: osteoclast

| pIC50 [1] | Structure (SMILES) | inhibition [1] | Activity [2] |
| --- | --- | --- | --- |
| 4.82 | COc1cc(C(=O)O[C@@H]2CN(C)CC[C@@H]2c2c(O)cc(O)c3c(=O)cc(C)oc23)ccc1O | Dose-dependent effect | Non-toxic |
| 5.01 | COc1cc(/C=C/C(=O)O[C@@H]2CN(C)CC[C@@H]2c2c(O)cc(O)c3c(=O)cc(C)oc23)cc(OC)c1OC | Dose-dependent effect | Non-toxic |
